According to the supplement of paper PMC10307832:

Legend:
Test in all cases: relative viability (nuclei count vs DMSO), 5 days (fraction); higher = more cells survive
[1] = compound: C1=CC2=NC=CN=C2C=C1/C=C/3\C(=O)NC(=O)S3 + COc1cccc2cc(-c3nc([C@H]4CC[C@H](C(=O)O)CC4)n4ncnc(N)c34)[nH]c12 [OSI-027] (partner 0.5 µM)
How it was run: (§1)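 Lung cancer cell lines in 1536-well plates were dosed by pin tool the day after seeding, either with one drug alone or with a fixed anchor-drug dose plus five library-drug doses (not always all listed) in √10 steps. After 5 days, cells were fixed and their nuclei stained in one step (final 0.05% Triton X-100, 1% formaldehyde, 1 ug/ml Hoechst), then counted on 4× images. Relative viability is the nuclei count in treated wells divided by that in vehicle wells. Values are medians of duplicate plates.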

[2] = compound: C1=CC2=NC=CN=C2C=C1/C=C/3\C(=O)NC(=O)S3 + C[C@]1(O)C[C@@H](c2nc(-c3ccc4ccc(-c5ccccc5)nc4c3)c3c(N)nccn32)C1 [Linsitinib] (partner 1 µM)
How it was run: as §1

[3] = compound: C1=CC2=NC=CN=C2C=C1/C=C/3\C(=O)NC(=O)S3 + N=C(N)NC(=N)NCCc1ccccc1 [Phenformin] (partner 250 µM)
How it was run: as §1

[4] = compound: CCN1CCN(c2ccc(Nc3cc(N(C)C(=O)Nc4c(Cl)c(OC)cc(OC)c4Cl)ncn3)cc2)CC1 [BGJ398] + CCNC(=O)c1noc(-c2cc(C(C)C)c(O)cc2O)c1-c1ccc(CN2CCOCC2)cc1 [Luminespib] (partner 0.01 µM)
How it was run: as §1

Cell Line: H3255
- relative viability ([1]; first compound 0.02 µM): 0.519
- relative viability ([1]; first compound 0.06325 µM): 0.592
- relative viability ([1]; first compound 0.2 µM): 0.526
- relative viability ([1]; first compound 0.6325 µM): 0.627
- relative viability ([1]; first compound 2 µM): 0.473
- relative viability ([2]; first compound 0.02 µM): 0.81
- relative viability ([2]; first compound 0.06325 µM): 0.968
- relative viability ([2]; first compound 0.2 µM): 0.967
- relative viability ([2]; first compound 0.6325 µM): 0.897
- relative viability ([2]; first compound 2 µM): 0.96
- relative viability ([3]; first compound 0.02 µM): 0.368
- relative viability ([3]; first compound 0.06325 µM): 0.348
- relative viability ([3]; first compound 0.2 µM): 0.358
- relative viability ([3]; first compound 0.6325 µM): 0.358
- relative viability ([3]; first compound 2 µM): 0.3
- relative viability ([4]; first compound 0.01 µM): 0.888
- relative viability ([4]; first compound 0.1 µM): 1.02
- relative viability ([4]; first compound 0.3162 µM): 0.625
- relative viability ([4]; first compound 1 µM): 0.422

Cell Line: 201T
- relative viability ([1]; first compound 0.02 µM): 0.664
- relative viability ([1]; first compound 0.06325 µM): 0.682
- relative viability ([1]; first compound 0.2 µM): 0.714
- relative viability ([1]; first compound 0.6325 µM): 0.671
- relative viability ([1]; first compound 2 µM): 0.23
- relative viability ([2]; first compound 0.02 µM): 0.807
- relative viability ([2]; first compound 0.06325 µM): 1.07
- relative viability ([2]; first compound 0.2 µM): 0.997
- relative viability ([2]; first compound 0.6325 µM): 0.949
- relative viability ([2]; first compound 2 µM): 1.01
- relative viability ([3]; first compound 0.02 µM): 0.448
- relative viability ([3]; first compound 0.06325 µM): 0.49
- relative viability ([3]; first compound 0.2 µM): 0.452
- relative viability ([3]; first compound 0.6325 µM): 0.495
- relative viability ([3]; first compound 2 µM): 0.323
- relative viability ([4]; first compound 0.01 µM): 1.24
- relative viability ([4]; first compound 0.03162 µM): 0.976
- relative viability ([4]; first compound 0.1 µM): 1.07
- relative viability ([4]; first compound 0.3162 µM): 1.04
- relative viability ([4]; first compound 1 µM): 0.979

Cell Line: NCI-H2126
- relative viability ([1]; first compound 0.02 µM): 0.627
- relative viability ([1]; first compound 0.06325 µM): 0.629
- relative viability ([1]; first compound 0.2 µM): 0.735
- relative viability ([1]; first compound 0.6325 µM): 0.734
- relative viability ([1]; first compound 2 µM): 0.363
- relative viability ([2]; first compound 0.02 µM): 0.682
- relative viability ([2]; first compound 0.06325 µM): 0.773
- relative viability ([2]; first compound 0.2 µM): 0.715
- relative viability ([2]; first compound 0.6325 µM): 0.688
- relative viability ([2]; first compound 2 µM): 0.685
- relative viability ([3]; first compound 0.02 µM): 0.503
- relative viability ([3]; first compound 0.06325 µM): 0.581
- relative viability ([3]; first compound 0.2 µM): 0.567
- relative viability ([3]; first compound 0.6325 µM): 0.534
- relative viability ([3]; first compound 2 µM): 0.339
- relative viability ([4]; first compound 0.01 µM): 0.894
- relative viability ([4]; first compound 0.03162 µM): 0.973
- relative viability ([4]; first compound 0.1 µM): 0.926
- relative viability ([4]; first compound 0.3162 µM): 0.891
- relative viability ([4]; first compound 1 µM): 0.832

Cell Line: HOP-62
- relative viability ([1]; first compound 0.02 µM): 0.742
- relative viability ([1]; first compound 0.06325 µM): 1.02
- relative viability ([1]; first compound 0.2 µM): 0.833
- relative viability ([1]; first compound 0.6325 µM): 0.827
- relative viability ([1]; first compound 2 µM): 0.607
- relative viability ([2]; first compound 0.02 µM): 1.04
- relative viability ([2]; first compound 0.06325 µM): 0.982
- relative viability ([2]; first compound 0.2 µM): 1.1
- relative viability ([2]; first compound 0.6325 µM): 1.01
- relative viability ([2]; first compound 2 µM): 1.06
- relative viability ([3]; first compound 0.02 µM): 0.549
- relative viability ([3]; first compound 0.06325 µM): 0.643
- relative viability ([3]; first compound 0.2 µM): 0.695
- relative viability ([3]; first compound 0.6325 µM): 0.646
- relative viability ([3]; first compound 2 µM): 0.622
- relative viability ([4]; first compound 0.01 µM): 0.89
- relative viability ([4]; first compound 0.03162 µM): 0.919
- relative viability ([4]; first compound 0.1 µM): 1.03
- relative viability ([4]; first compound 0.3162 µM): 0.868
- relative viability ([4]; first compound 1 µM): 0.897

Cell Line: CAL-12T
- relative viability ([1]; first compound 0.02 µM): 0.489
- relative viability ([1]; first compound 0.06325 µM): 0.648
- relative viability ([1]; first compound 0.2 µM): 0.741
- relative viability ([1]; first compound 0.6325 µM): 0.542
- relative viability ([1]; first compound 2 µM): 0.33
- relative viability ([2]; first compound 0.02 µM): 0.679
- relative viability ([2]; first compound 0.06325 µM): 0.844
- relative viability ([2]; first compound 0.2 µM): 0.953
- relative viability ([2]; first compound 0.6325 µM): 0.881
- relative viability ([2]; first compound 2 µM): 0.839
- relative viability ([3]; first compound 0.02 µM): 0.577
- relative viability ([3]; first compound 0.06325 µM): 0.479
- relative viability ([3]; first compound 0.2 µM): 0.562
- relative viability ([3]; first compound 0.6325 µM): 0.517
- relative viability ([3]; first compound 2 µM): 0.546
- relative viability ([4]; first compound 0.01 µM): 0.257
- relative viability ([4]; first compound 0.03162 µM): 0.391
- relative viability ([4]; first compound 0.1 µM): 0.326
- relative viability ([4]; first compound 0.3162 µM): 0.4
- relative viability ([4]; first compound 1 µM): 0.232

Cell Line: NCI-H520
- relative viability ([1]; first compound 0.02 µM): 0.25
- relative viability ([1]; first compound 0.06325 µM): 0.356
- relative viability ([1]; first compound 0.2 µM): 0.249
- relative viability ([1]; first compound 0.6325 µM): 0.27
- relative viability ([1]; first compound 2 µM): 0.36
- relative viability ([2]; first compound 0.02 µM): 0.931
- relative viability ([2]; first compound 0.06325 µM): 1.15
- relative viability ([2]; first compound 0.2 µM): 1.11
- relative viability ([2]; first compound 0.6325 µM): 0.969
- relative viability ([2]; first compound 2 µM): 1.03
- relative viability ([3]; first compound 0.02 µM): 0.635
- relative viability ([3]; first compound 0.06325 µM): 0.728
- relative viability ([3]; first compound 0.2 µM): 0.601
- relative viability ([3]; first compound 0.6325 µM): 0.464
- relative viability ([3]; first compound 2 µM): 0.644
- relative viability ([4]; first compound 0.01 µM): 0.205
- relative viability ([4]; first compound 0.03162 µM): 0.235
- relative viability ([4]; first compound 0.1 µM): 0.234
- relative viability ([4]; first compound 0.3162 µM): 0.205
- relative viability ([4]; first compound 1 µM): 0.203

Cell Line: NCI-H1755
- relative viability ([1]; first compound 0.02 µM): 0.712
- relative viability ([1]; first compound 0.06325 µM): 0.838
- relative viability ([1]; first compound 0.2 µM): 0.71
- relative viability ([1]; first compound 0.6325 µM): 0.699
- relative viability ([1]; first compound 2 µM): 0.575
- relative viability ([2]; first compound 0.02 µM): 0.927
- relative viability ([2]; first compound 0.06325 µM): 0.995
- relative viability ([2]; first compound 0.2 µM): 1.02
- relative viability ([2]; first compound 0.6325 µM): 0.978
- relative viability ([2]; first compound 2 µM): 0.979
- relative viability ([3]; first compound 0.02 µM): 0.578
- relative viability ([3]; first compound 0.06325 µM): 0.625
- relative viability ([3]; first compound 0.2 µM): 0.588
- relative viability ([3]; first compound 0.6325 µM): 0.62
- relative viability ([3]; first compound 2 µM): 0.562
- relative viability ([4]; first compound 0.01 µM): 0.498
- relative viability ([4]; first compound 0.03162 µM): 0.363
- relative viability ([4]; first compound 0.1 µM): 0.339
- relative viability ([4]; first compound 0.3162 µM): 0.606
- relative viability ([4]; first compound 1 µM): 0.417

Cell Line: NCI-H2023
- relative viability ([1]; first compound 0.02 µM): 0.423
- relative viability ([1]; first compound 0.06325 µM): 0.346
- relative viability ([1]; first compound 0.2 µM): 0.478
- relative viability ([1]; first compound 0.6325 µM): 0.326
- relative viability ([1]; first compound 2 µM): 0.161
- relative viability ([2]; first compound 0.02 µM): 0.626
- relative viability ([2]; first compound 0.06325 µM): 0.787
- relative viability ([2]; first compound 0.2 µM): 0.611
- relative viability ([2]; first compound 0.6325 µM): 0.568
- relative viability ([2]; first compound 2 µM): 0.632
- relative viability ([3]; first compound 0.02 µM): 0.441
- relative viability ([3]; first compound 0.06325 µM): 0.452
- relative viability ([3]; first compound 0.2 µM): 0.438
- relative viability ([3]; first compound 0.6325 µM): 0.426
- relative viability ([3]; first compound 2 µM): 0.329
- relative viability ([4]; first compound 0.01 µM): 0.627
- relative viability ([4]; first compound 0.03162 µM): 0.849
- relative viability ([4]; first compound 0.1 µM): 0.739
- relative viability ([4]; first compound 0.3162 µM): 0.851
- relative viability ([4]; first compound 1 µM): 0.809

Cell Line: NCI-H2009
- relative viability ([1]; first compound 0.02 µM): 0.682
- relative viability ([1]; first compound 0.06325 µM): 0.659
- relative viability ([1]; first compound 0.2 µM): 0.701
- relative viability ([1]; first compound 0.6325 µM): 0.579
- relative viability ([1]; first compound 2 µM): 0.452
- relative viability ([2]; first compound 0.02 µM): 1.16
- relative viability ([2]; first compound 0.06325 µM): 1.26
- relative viability ([2]; first compound 0.2 µM): 1.26
- relative viability ([2]; first compound 0.6325 µM): 1.18
- relative viability ([2]; first compound 2 µM): 1.2
- relative viability ([3]; first compound 0.02 µM): 0.507
- relative viability ([3]; first compound 0.06325 µM): 0.454
- relative viability ([3]; first compound 0.2 µM): 0.508
- relative viability ([3]; first compound 0.6325 µM): 0.482
- relative viability ([3]; first compound 2 µM): 0.461
- relative viability ([4]; first compound 0.01 µM): 1.06
- relative viability ([4]; first compound 0.03162 µM): 1.05
- relative viability ([4]; first compound 0.1 µM): 1.03
- relative viability ([4]; first compound 0.3162 µM): 1.02
- relative viability ([4]; first compound 1 µM): 0.972
